From US7160903B2, “Sulfonylaminocarboxylic acids” (Sanofi-Aventis Deutschland GmbH, priority 1997, dated 2007)

Assays:
stromelysin (MMP-3) = target: T1, stromelysin (MMP-3) (Homo sapiens, UniProt P08254); assay: Enzymatic activity of the catalytic domain of human stromelysin (fluorogenic substrate); assay type: biochemical; settings: pH=6.5, 15 min preincubation, fluorescence 328 nm (ex)/393 nm (em)
T1 construct: enzymatic activity of the catalytic domains of human stromelysin and of neutrophil collagenase; made in house
T1 sequence (P08254 100-272 limits assumed): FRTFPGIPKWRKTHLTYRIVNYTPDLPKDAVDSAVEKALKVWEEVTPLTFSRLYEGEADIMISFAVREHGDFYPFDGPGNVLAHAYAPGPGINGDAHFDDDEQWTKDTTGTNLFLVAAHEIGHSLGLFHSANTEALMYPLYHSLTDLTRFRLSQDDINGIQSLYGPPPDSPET
Experimental: (§1) Preparation and determination of the enzymatic activity of the catalytic domains of human stromelysin and of neutrophil collagenase:
(§2) The enzymes stromelysin (MMP-3) and neutrophil collagenase (MMP-8) were prepared according to Ye et al. (Biochemistry; 31 (1992) pages 11231–11235). To measure the enzyme activity or the enzyme inhibitor action, 70 μl of buffer solution and 10 μl of enzyme solution are incubated for 15 min with 10 μl of a 10% strength (v/v) aqueous dimethyl sulfoxide solution, which optionally contains the enzyme inhibitor. After addition of 10 μl of a 10% strength (v/v) aqueous dimethyl sulfoxide solution which contains 1 mmol/L of the substrate, the enzyme reaction is monitored by fluorescence spectroscopy (328 nm (ex)/393 nm(em)). The enzyme activity is shown as the extinction increase/min. The IC50 values listed in Table 2 are determined as those inhibitor concentrations which in each case led to a 50% inhibition of the enzyme.
(§3) The buffer solution contains 0.05% Brij (Sigma, Deisenhofen, Germany) and also 0.1 mol/L Tris/HCl, 0.1 mol/L NaCl, 0.01 mol/L CaCl2 and 0.1 mol/L piperazine-N,N′-bis[2-ethanesulfonic acid] (pH=6.5). The enzyme solution contains 5 μg/ml of one of the enzyme domains prepared according to Ye et al. The substrate solution contains 1 mmol/L of the fluorogenic substrate (7-methoxycoumarin-4-yl)acetyl-Pro-Leu-Gly-Leu-3-(2′,4′-dinitrophenyl)-L-2,3-diaminopropionyl-Ala-Arg-NH2 (Bachem, Heidelberg, Germany).

[1] = target: T2, neutrophil collagenase (MMP-8) (Homo sapiens, UniProt P22894); assay: Enzymatic activity of the catalytic domain of neutrophil collagenase (fluorogenic substrate); assay type: biochemical; settings: pH=6.5, 15 min preincubation, fluorescence 328 nm (ex)/393 nm (em), read-out: Neutr. collagenase IC50
T2 construct: enzymatic activity of the catalytic domains of human stromelysin and of neutrophil collagenase; made in house
T2 sequence (P22894 100-262 limits assumed): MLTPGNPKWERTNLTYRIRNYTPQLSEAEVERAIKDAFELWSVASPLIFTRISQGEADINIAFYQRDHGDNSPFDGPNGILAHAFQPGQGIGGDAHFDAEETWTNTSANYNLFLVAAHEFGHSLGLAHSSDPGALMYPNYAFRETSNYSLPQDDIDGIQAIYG
Experimental: as §1, §2, §3

SMILES	IC50 (stromelysin (MMP-3)) [nM]	IC50 [1] [nM]	melting point
NC(=O)CC[C@@H](NS(=O)(=O)c1ccc(-c2ccc(Cl)cc2)cc1)C(=O)O [Example 51]	50	5	
CN(CC(=O)O)S(=O)(=O)c1ccc(Oc2ccc(Cl)cc2)cc1 [Example 4]			128 to 130 °C
O=C(O)C1CCCCN1S(=O)(=O)c1ccc(-c2ccccc2)cc1 (racemic) [Example 55]	800	40	174.5 to 175.5 °C
O=C(O)C(CSC1=NCCS1)NS(=O)(=O)c1ccc(-c2ccc(Cl)cc2)cc1 (racemic) [Example 19]	500	50	
O=C(O)[C@H](CSCc1ccccc1)NS(=O)(=O)c1ccc(-c2ccc(Cl)cc2)cc1 [Example 32]	200	40	
O=C(O)C(NS(=O)(=O)c1ccc(-c2ccc(Cl)cc2)cc1)C(O)c1ccccc1 (stereo not shown) [Example 34]	200	20	
O=C(O)[C@H]1C[C@@H](O)CN1S(=O)(=O)c1ccc(-c2ccc(Cl)cc2)cc1 [Example 2, (2R)-1-(4-Chlorobiphenylsulfonyl)-4-cis-hydroxyproline]	100	90	
O=C(CC[C@H](NS(=O)(=O)c1ccc(-c2ccccc2)cc1)C(=O)O)Nc1ccc(C(F)(F)F)cc1 [Example 85]	3000	30	265 °C
COc1ccc(CC(NS(=O)(=O)c2ccc(-c3ccc(N(C)C)cc3)cc2)C(=O)O)cc1OC (racemic) [Example 24]			230 °C
O=C(CC[C@H](NS(=O)(=O)c1ccc(-c2ccccc2)cc1)C(=O)O)Nc1ccc([N+](=O)[O-])cc1 [Example 75]	300	20	232 to 233 °C
O=C(C[C@H](NS(=O)(=O)c1ccc(-c2ccc(Cl)cc2)cc1)C(=O)O)OCc1ccccc1 [Example 41]	200	30	
NC(=O)CC[C@@H](NS(=O)(=O)c1ccc(-c2ccccc2)cc1)C(=O)O [Example 72]	600	20	
O=C(O)[C@@H](Cc1csc2ccccc12)NS(=O)(=O)c1ccc(-c2ccc(Cl)cc2)cc1 [Example 28]	300	60	
NNC(=O)CC[C@H](NS(=O)(=O)c1ccc(-c2ccccc2)cc1)C(=O)O [Example 59]			205 to 207 °C
O=C(O)C[C@H](NS(=O)(=O)c1ccc(-c2ccccc2)cc1)C(=O)O [Example 37]			186.7 °C
O=C(O)[C@H](Cc1c[nH]cn1)NS(=O)(=O)c1ccc(Oc2ccccc2)cc1 [Example 30]			183 to 185 °C

SMILES	IC50 (stromelysin (MMP-3)) [nM]	IC50 [1] [nM]	melting point
O=C(O)[C@H](CCC(=O)N1CCc2ccccc21)NS(=O)(=O)c1ccc(-c2ccccc2)cc1 [Example 100]		20	182.5 to 183.5 °C
O=C(O)[C@@H](CCc1ccccc1)NS(=O)(=O)c1ccc(-c2ccc(Cl)cc2)cc1 [Example 25]	200	40	
O=C(CCC(NS(=O)(=O)c1ccc(-c2ccccc2)cc1)C(=O)O)Nc1ccccc1 (racemic) [Example 47]			227 to 230 °C
O=C(O)C(NS(=O)(=O)c1ccc(-c2ccc(Cl)cc2)cc1)c1ccsc1 (racemic) [Example 26]	400	40	
O=C(O)C[C@H](NS(=O)(=O)c1ccc(-c2ccc(Cl)cc2)cc1)C(=O)OCc1ccccc1 [Example 42]	400	30	
C[S+]([O-])CC[C@@H](NS(=O)(=O)c1ccc(-c2ccc(Cl)cc2)cc1)C(=O)O (stereo partly shown) [Example 15]	100	10	
NC(=O)C[C@@H](NS(=O)(=O)c1ccc(-c2ccc(Cl)cc2)cc1)C(=O)O [Example 44]	90	10	
O=C(O)C(CCc1c[nH]c2ccccc12)NS(=O)(=O)c1ccc(-c2ccc(Cl)cc2)cc1 (racemic) [Example 105]	30	10	
O=C(O)[C@H](CCC(=O)N1CCc2ccccc21)NS(=O)(=O)c1ccc(-c2ccc(N3CCCC3)cc2)cc1 [Example 101]			> 130 °C (dec.)
O=C(O)C[C@@H](C(=O)O)N(Cc1ccncc1)S(=O)(=O)c1ccc(-c2ccccc2)cc1 [Example 43]			105 °C
O=C(O)C(Cc1cccnc1)NS(=O)(=O)c1ccc(-c2ccc(Cl)cc2)cc1 (racemic) [Example 88]	100	7	
CP(=O)(O)CC[C@H](NS(=O)(=O)c1ccc(-c2ccc(Cl)cc2)cc1)C(=O)O [Example 104]	40	5	
CS(=O)(=O)CC[C@@H](NS(=O)(=O)c1ccc(-c2ccc(Cl)cc2)cc1)C(=O)O [Example 16]	70	7	
CN(C)c1ccc(-c2ccc(S(=O)(=O)N[C@H](CCC(=O)O)C(=O)O)cc2)cc1 [Example 46]			165 °C
O=C(CC[C@H](NS(=O)(=O)c1ccc(-c2ccccc2)cc1)C(=O)O)Nc1ccc(C(=O)O)cc1 [Example 50]			266 °C
O=C(c1ccccc1)c1ccc(C[C@@H](NS(=O)(=O)c2ccc(-c3ccc(Cl)cc3)cc2)C(=O)O)cc1 [Example 23]	1000	600	

The remaining lines, values ahead:

IC50 (stromelysin (MMP-3)) [nM]	IC50 [1] [nM]	melting point	SMILES
400	20	159 to 162 °C	O=C(O)[C@@H](Cc1ccccc1)NS(=O)(=O)c1ccc(-c2ccc(C(F)(F)F)cc2)cc1 [Example 20]
		138 to 139 °C	O=C(O)[C@@H]1CN1S(=O)(=O)c1ccc(-c2ccccc2)cc1 (stereo partly shown) [Example 64]
200	10	> 200 °C (dec.)	O=C(O)[C@@H](Cc1cccs1)NS(=O)(=O)c1ccc(-c2ccc(Cl)cc2)cc1 [Example 27]
100	10	171.5 to 172 °C	O=C(O)CCCC(NS(=O)(=O)c1ccc(-c2ccccc2)cc1)C(=O)O (racemic) [Example 82]
1000	20	250 to 250.5 °C	CNC(=O)c1ccc(NC(=O)CC[C@H](NS(=O)(=O)c2ccc(-c3ccccc3)cc2)C(=O)O)cc1 [Example 83]
20	4	234.5 to 235.5 °C	O=C(CC[C@H](NS(=O)(=O)c1ccc(-c2ccccc2)cc1)C(=O)O)Nc1ccccc1 [Example 79]
7	2	121 °C	CSCC[C@H](NC(=O)CC[C@H](NS(=O)(=O)c1ccc(-c2ccc(N(C)C)cc2)cc1)C(=O)O)C(=O)O [Example 62]
200	10		O=C(O)C(NS(=O)(=O)c1ccc(-c2ccc(Cl)cc2)cc1)C(O)c1cccs1 (stereo not shown) [Example 36]
300	10	> 258 °C (dec.)	O=C(CC[C@H](NS(=O)(=O)c1ccc(-c2ccccc2)cc1)C(=O)O)Nc1ccc(F)cc1 [Example 91]
30	4	123.5 to 124.5 °C	O=C(CC[C@H](NS(=O)(=O)c1ccc(-c2ccccc2)cc1)C(=O)O)N[C@@H](Cc1ccccc1)C(=O)O [Example 92]
80	9		O=C(O)[C@@H](Cc1c[nH]c2ccccc12)NS(=O)(=O)c1ccc(-c2ccc(Cl)cc2)cc1 [Example 29, (R)-N-(4-Chlorobiphenylsulfonyl)tryptophan]
		70 to 76 °C	CSCC[C@@H](NS(=O)(=O)c1ccc(-c2ccon2)s1)C(=O)O [Example 13]
		169 to 171 °C	O=C(O)CCN(CC(=O)O)S(=O)(=O)c1ccc(Oc2ccc(Cl)cc2)cc1 [Example 45]
200	40		O=C(O)[C@@H](CO)NS(=O)(=O)c1ccc(-c2ccc(Cl)cc2)cc1 [Example 7]
200	20		C=CC(NS(=O)(=O)c1ccc(-c2ccc(Cl)cc2)cc1)C(=O)O (racemic) [Example 6]
		212 to 214 °C	CN(C)c1ccc(-c2ccc(S(=O)(=O)NC(CCC(=O)Nc3ccccc3)C(=O)O)cc2)cc1 (racemic) [Example 48]
		> 55 °C	O=C(O)C[C@@H](NS(=O)(=O)c1ccc(-c2ccccc2)cc1)C(=O)O [Example 38]
100	20		CS(=O)(=O)CC[C@H](NS(=O)(=O)c1ccc(-c2ccc(Cl)cc2)cc1)C(=O)O [Example 17]
		115 to 125 °C	CSCC[C@@H](NS(=O)(=O)c1ccc(-c2ccccn2)s1)C(=O)O [Example 12]
		213 to 215 °C	CN(C)c1ccc(-c2ccc(S(=O)(=O)N[C@@H](CCC(N)=O)C(=O)O)cc2)cc1 [Example 49]
90	10		CSCC[C@@H](NS(=O)(=O)c1ccc(-c2ccc(Cl)cc2)cc1)C(=O)O [Example 10]
